Patent US20180214430A1, “Selective Inhibitors Of i-NOS For Use Against Viral Infection” (priority 2015, published 2018)
“Also recorded” adds a separate entry of the source. Like-named read-outs stand apart in the source and are kept apart here. Marks after values point to notes of the source that are not given here.

Experiments:
RSV [1] = assay: RSV replication in A549 epithelial cell cultures (number of infected cells, immunofluorescence); type: cell-based, respiratory syncytial virus (A2) Long strain; conditions: for IC50: read-out: IC50 on RSV replication (concentration needed to give a 50% reduction in number of infected cells/well)
influenza virus = assay: microbe, parasite or virus in culture; type: cell-based, Human influenza virus A/Puerto Rico/8/34 (H1N1)
A549 cells = assay: Cytotoxicity assay (LDH in cell culture supernatant); type: cell-based, human; conditions: uninfected and RSV infected A549 cells, concentration series
Protocol: To determine the level of cell damage following infection, 50 μl of the culture supernatant from each well were transferred to the corresponding well in 96 well microtitre plate. The LDH activity of the supernatant was measured by a LDH Assay kit, according to the manufacturer's instructions (Sigma, UK). 100 μl of LDH Assay solution was added to each well and the plate was incubated for 30 min at room temperature. After incubation, the absorbance was measured at two wavelengths, 490 nm (measurement) and 690 nm (reference), using a microplate reader (BioRad Laboratories, Hercules, Calif., USA). The percent LDH release was calculated by measuring the LDH content of lysed cells that remained attached to the plate.
To determine whether the concentration series of 1400 W we used was toxic to the A549 cells, and to eliminate the possibility that the reduction in viral antigen was due to toxicity, the concentration of lactate dehydrogenase (LDH) in the cell culture supernatant was measured. LDH is an enzyme that is only released by cells when the cell membrane integrity is reduced. Therefore the concentration of LDH in the cell culture supernatant is directly correlated to cell death.

[2] = system: NO production by RSV infected A549 epithelial cells; assay: Nitric oxide released into cell culture supernatant of RSV infected cells (chemiluminescence); type: cell-based, human; conditions: for NO production by these cells: epithelial cells, qualitative statement
RSV [3] = assay: Mouse infection model: viral load of the lungs (plaque assay); type: in vivo, balb/c mice; conditions: 10 mg/kg i.p. every 12 h
total lung NOS activity = assay: Mouse infection model: nitrite concentration of lung homogenate; type: in vivo, balb/c mice; conditions: 10 mg/kg i.p. every 12 h
[4] = system: respiratory syncytial virus; conditions: mouse model of respiratory syncytial virus; cited from earlier work
[5] = epithelial cells, qualitative statement
[6] = A549 cells, RPMI (1.15 mM L-Arg), after 24 h, ± 95% CI
[7] = RSV infected mice, day 3, 10 mg/kg
[8] = RSV infected mice, day 3, listed as 1400 W, 10 mg/kg

**Q.** Which “viral (RSV) replication” value (RSV [1]; [5]) does the source give for CC(=O)N[C@H](C(=O)O)C(C)(C)SN=O (racemic) [SNAP, S-nitroso-N-acetylpenicillamine] here?
**A.** Its value is “did not affect”.

**Q.** With CC(=N)NCc1cccc(CN)c1 [1400W] as the compound, how does the “number of RSV-infected cells” value (RSV [1]; A549 cells, 24 hrs, concentrations above 1 mM) read?
**A.** Its value is “significantly decreased”.

**Q.** What about the IC50 (RSV [1]; [6]) of the same compound?
**A.** The IC50 was 1100 ± 500 µM.

**Q.** What about the “viral (RSV) replication” value (RSV [1]; [5]) of the same compound?
**A.** Its value is “strongly inhibited”.

**Q.** And the IC50 (influenza virus; A549 cells, DMEM (0.35 mM L-Arg), after 24 h, ± 95% CI, read-out: IC50 on influenza virus replication (concentration needed to give a 50% reduction in number of infected cells/well))?
**A.** The IC50 was 3700 ± 1000 µM.

**Q.** What about the IC50 (influenza virus; A549 cells, RPMI (1.15 mM L-Arg), after 24 h, ± 95% CI, read-out: IC50 on influenza virus replication (concentration needed to give a 50% reduction in number of infected cells/well)) of the same compound?
**A.** The IC50 was 4600 ± 900 µM.

**Q.** And the “toxicity: amount of LDH in the cell culture supernatant” value (A549 cells)?
**A.** The value was “not affected; also recorded: not toxic”.

**Q.** What about the “amount of NO released into the cell culture supernatant” value ([2]; RSV infected A549 cells, concentrations above 1 mM) of the same compound?
**A.** Its value is “significant decrease”.

**Q.** What about the “NO production by these cells” value [2] of the same compound?
**A.** The value was “reduction”.

**Q.** And the “Log10 pfu per gram lung” value (RSV [3]; Mock infected mice, day 3)?
**A.** Its value is less than 0.18 Log10 pfu per gram lung.

**Q.** What about the “Log10 pfu per gram lung” value (RSV [3]; Mock infected mice, day 5) of the same compound?
**A.** The value was less than 0.18 Log10 pfu per gram lung.

**Q.** And the “Log10 pfu per gram lung” value (RSV [3]; [7])?
**A.** The value was 0.51 ± 0.17 Log10 pfu per gram lung.

**Q.** And the “Log10 pfu per gram lung” value (RSV [3]; [8])?
**A.** The value was “significantly lower”.

**Q.** What about the “Log10 pfu per gram lung” value (RSV [3]; RSV infected mice, day 5) of the same compound?
**A.** Its value is 1.18 ± 0.92 Log10 pfu per gram lung.

**Q.** What about the Nitrite lung homogenate (total lung NOS activity; Mock infected mice, day 3) of the same compound?
**A.** Its Nitrite lung homogenate is 26.0 (5.4) uM.

**Q.** What about the Nitrite lung homogenate (total lung NOS activity; Mock infected mice, day 5) of the same compound?
**A.** Its Nitrite lung homogenate is 21.6 (3.0) uM.

**Q.** What about the Nitrite lung homogenate (total lung NOS activity; [7]) of the same compound?
**A.** The Nitrite lung homogenate was 16.7 (1.9)* uM.

**Q.** What about the Nitrite lung homogenate (total lung NOS activity; [8]) of the same compound?
**A.** Its Nitrite lung homogenate is “significantly reduced”.

**Q.** And the Nitrite lung homogenate (total lung NOS activity; RSV infected mice, day 5)?
**A.** Its Nitrite lung homogenate is 23.7 (3.3) uM.

**Q.** With CC1CCN=C(N)S1 (stereo not drawn) [AMT, 2-amino-5,6-dihydro-6-methyl-4H-1,3-thiazine] as the compound, how does the viral titres [4] read?
**A.** Its viral titres is “increase”.

**Q.** With COc1ccnc(CCc2nc3ncccc3[nH]2)c1 [BYK191023] as the compound, how does the “viral (RSV) replication” value (RSV [1]; [5]) read?
**A.** Its value is “strongly inhibited”.

**Q.** What about the IC50 (RSV [1]; human respiratory syncytial virus, A549 cells, RPMI (1.15 mM L-Arg), after 24 h, ± 95% CI) of the same compound?
**A.** The IC50 was 1100 ± 500 µM.

**Q.** What about the IC50 (influenza virus; unidentified influenza virus, A549, 24 h, read-out: IC50 on influenza virus replication (concentration needed to give a 50% reduction in number of infected cells/well), A549 cells, DMEM (0.35 mM L-Arg), after 24 h, ± 95% CI) of the same compound?
**A.** Its IC50 is 4800 ± 400 µM.

**Q.** And the IC50 (influenza virus; unidentified influenza virus, A549, 24 h, read-out: IC50 on influenza virus replication (concentration needed to give a 50% reduction in number of infected cells/well), A549 cells, RPMI (1.15 mM L-Arg), after 24 h, ± 95% CI)?
**A.** Its IC50 is 4300 ± 800 µM.

**Q.** What about the “NO production by these cells” value [2] of the same compound?
**A.** Its value is “reduction”.

**Q.** With COC(=O)[C@@H](N)CCCNC(=N)N[N+](=O)[O-] [L-NAME] as the compound, how does the “IC50 on RSV replication (concentration needed to give a 50% reduction in number of infected cells/well)” value (RSV [1]; [6]) read?
**A.** The value was “No effect”.

**Q.** And the “viral (RSV) replication” value (RSV [1]; [5])?
**A.** Its value is “did not inhibit; also recorded: not to inhibit”.

**Q.** And the “IC50 on influenza virus replication (concentration needed to give a 50% reduction in number of infected cells/well)” value (influenza virus; [6])?
**A.** The value was “No effect”.

**Q.** For N=C(N)NCCC[C@H](N)C(=O)O [L-arginine], which “IC50 on RSV replication (concentration needed to give a 50% reduction in number of infected cells/well)” value (RSV [1]; [6]) is on record?
**A.** Its value is “No inhibitory”.

**Q.** For Cl.N=c1c[n+](N2CCOCC2)[n-]o1 [SIN-1, 3-morpholinosydnonimine hydrochloride], which “viral (RSV) replication” value (RSV [1]; [5]) is on record?
**A.** The value was “did not affect”.

**Q.** Which “viral (RSV) replication” value (RSV [1]) does the source give for NCCCNCCCCN(CCCN)/[N+]([O-])=N/O [Spermine (NONOate)] here?
**A.** The value was “inhibit”.

**Q.** What about the IC50 (RSV [1]) of the same compound?
**A.** The IC50 was 1500 ± 500 µM.

**Q.** What about the IC50 (influenza virus; read-out: IC50 on influenza virus replication (concentration needed to give a 50% reduction in number of infected cells/well)) of the same compound?
**A.** The IC50 was 600 ± 400 µM.
